Experimental findings from US5945421A, “Dopamine D4 receptor antagonists” (Warner-Lambert Company, priority 1997, dated 1999) are described below.

The structures appear in SMILES notation. Read-outs that look alike come from different tables or passages of the source.

Assay [1] concerns the target T1, human recombinant dopamine D4.2 receptor (Homo sapiens, UniProt P21917, DEL265-296).
T1 construct: expressed in transfected cells; host or cells: CHO K1
T1 sequence (P21917 with tags, fused parts or gaps DEL265-296): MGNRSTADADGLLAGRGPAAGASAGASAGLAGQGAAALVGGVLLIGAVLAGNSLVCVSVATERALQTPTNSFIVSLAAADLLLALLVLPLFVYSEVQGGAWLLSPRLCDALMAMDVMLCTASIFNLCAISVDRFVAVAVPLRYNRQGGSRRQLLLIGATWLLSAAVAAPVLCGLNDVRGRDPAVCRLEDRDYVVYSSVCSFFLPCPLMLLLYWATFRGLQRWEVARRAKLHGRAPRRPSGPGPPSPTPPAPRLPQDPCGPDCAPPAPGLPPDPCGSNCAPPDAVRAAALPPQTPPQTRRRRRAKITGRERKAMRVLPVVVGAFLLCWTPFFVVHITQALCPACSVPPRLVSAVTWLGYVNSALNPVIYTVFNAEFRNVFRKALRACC
Description: Receptor binding assay, D4.2 dopamine receptor ([3H]spiperone competition, CHO K1 cell membranes). An excerpt:
(§1) A cell line expressing human dopamine D2 (Long form) receptors was purchased from Oregon Health Sciences University, Portland, Oreg. The D2 receptor cDNA was subcloned into an expression vector, pRc/CMV. The plasmids were transfected by electroporation into CHO K1 cells. A single stable transfectant, resistant to the antibiotic G418, was isolated and selected for use in the binding studies. For D4 binding, CHO K1 cells stably transfected to express the human recombinant dopamine D4.2 receptor subtype, as described by Shih, et al., "The expression and functional characterization of human dopamine D4.2 receptor in CHO K1 cells," Soc. Neurosci., 21(Part 1):621 (1995).
(§2) CHO K1 cells expressing either human D2 and D4.2 receptors were grown in 162 cm^2 culture flasks in F12 medium (Gibco Laboratories, Grand Island, N.Y.) supplemented with 10% fetal bovine serum (FBS, Hyclone, Logan, Utah) in an atmosphere of 5% CO2 /95% air at 37° C. Cells were grown until confluent, after which growth medium was removed and replaced with 0.02% ethylene diamine tetracetate (EDTA) in a phosphate-buffered saline solution (Sigma Chemical Co., St. Louis, Mo.) and scraped from the flasks. The cells were centrifuged at about 1000×g for 10 minutes at 40° C. and then resuspended in TEM buffer (25 mM Tris-HCL, pH 7.4, 5 mM EDTA, and 6 mM MgCl2) for D2 or the D4.2 buffer (50 mM Tris-HCl, pH 7.4, 5 mM EDTA, 1.5 mM CaCl2, 5 mM KCl, and 120 mM NaCl) and homogenized. The membranes were pelleted by centrifugation at 20,000×g at 40° C. for 20 minutes. Then the pellets were resuspended in appropriate buffer at 1 mL/flask and stored at -70° C. until used in the receptor binding assay.
(§3) After 60 minutes incubation at 25° C., the incubations were terminated by rapid filtration through Whatmann GF/B glass fibre filters (soaked for 1 hour in 0.5% polyethylenimine) on a -cell harvester, with three washes of 1 mL ice-cold buffer. Individual filter disks containing the bound ligand were placed in counting vials with 4 mL of scintillation fluid (Ready Gel, Beckman Instrument Inc., Fullerton, Calif.) and then counted in a Beckman LS-6800 liquid scintillation counter at an efficiency of 45%. Nonspecific binding was defined in presence of 1 mM of haloperidol.
(§4) Saturation and competition binding data were analyzed using an iterative nonlinear least-square curve-fitting Ligand program. In competition experiments, apparent Ki values were calculated from IC50 values by method of Cheng and Prusoff, "Relationship between the inhibition constant (Ki) and the concentration of inhibitor which causes 50% inhibition (IC50) of an enzymatic reaction," Biochem. Pharmacol., 22:3099-3108 (1973). Experimental compounds were made up as stock solutions in dimethyl sulfoxide (DMSO). […] Each observation was carried out in triplicate. To allow these calculations, Kd values were measured for the interaction of various ligands with the receptor. […]

Assay [2] addresses human dopamine D2 (Long form) receptors (Homo sapiens, UniProt P14416). Description: biochemical. The conditions noted are these: 0.2 nM [3H]spiperone, CHO K1 membranes, 60 min, 25° C.; apparent Ki from IC50 (Cheng-Prusoff). The assay is classed as binding.
Excerpt: as §1, §2, §3, §4

Setting [3] is: 0.2 nM [3H]spiperone, CHO K1 membranes, 60 min, 25° C., apparent Ki from IC50 (Cheng-Prusoff), read-out: D4 Ki.

Chain of human dopamine D2 (Long form) receptors (P14416 whole entry): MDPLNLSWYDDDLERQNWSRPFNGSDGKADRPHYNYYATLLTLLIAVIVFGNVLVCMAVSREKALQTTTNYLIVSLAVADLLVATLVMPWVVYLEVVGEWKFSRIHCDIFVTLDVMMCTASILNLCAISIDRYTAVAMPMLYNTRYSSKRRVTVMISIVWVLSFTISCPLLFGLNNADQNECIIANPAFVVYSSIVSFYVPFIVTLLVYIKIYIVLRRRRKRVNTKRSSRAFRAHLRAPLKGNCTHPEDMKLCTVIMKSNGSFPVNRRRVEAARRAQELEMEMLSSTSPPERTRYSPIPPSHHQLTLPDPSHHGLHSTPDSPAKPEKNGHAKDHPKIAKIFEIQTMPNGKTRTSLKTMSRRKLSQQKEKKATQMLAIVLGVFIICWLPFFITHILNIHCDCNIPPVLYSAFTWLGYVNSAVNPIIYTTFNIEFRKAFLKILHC

On to `Clc1ccc(N2CCN(Cc3ccc4ccccc4n3)CC2)cc1Cl` [2-[4-(3,4-Dichloro-phenyl)-piperazin-1-ylmethyl]-quinoline], for which the results for the Ki in assay [1] (setting [3]) and in assay [2] were 61 nM and above 5880 nM, respectively. As for `Cc1cccc(N2CCN(Cc3ccc4ccccc4n3)CC2)c1` [2-(4-m-Tolyl-piperazin-1-ylmethyl)-quinoline], the Ki in assay [1] (setting [3]) was found to be 127 nM. Regarding `OCc1ccc(N2CCN(Cc3ccc4ccccc4n3)CC2)cc1` [[4-(4-Quinolin-2-ylmethyl-piperazin-1-yl)-phenyl]-methanol], the Ki in assay [1] (setting [3]) was 139 nM; in assay [2] it was above 5880 nM. The corresponding values for `OCc1ccc(N2CCN(Cc3ccc4ccccc4n3)CC2)cc1Cl` [[2-Chloro-4-(4-quinolin-2-ylmethyl-piperazin-1-yl)-phenyl]-methanol] are 8.27 nM and above 10000 nM. For `O=Cc1ccc(N2CCN(Cc3ccc4ccccc4n3)CC2)cc1Cl` [2-Chloro-4-(4-quinolin-2-ylmethyl-piperazin-1-yl)-benzaldehyde], the Ki in assay [1] (setting [3]) is 87 nM. In the case of `Fc1ccc(C2=CCN(Cc3ccc4ccccc4n3)CC2)cc1` [2-[4-(4-Fluoro-phenyl)-3,6-dihydro-2H-pyridin-1-ylmethyl]-quinoline], the Ki came to 14.4 nM in assay [1] and 254 nM in assay [2]. Consider `COc1ccc(N2CCN(Cc3ccc4ccccc4n3)CC2)cc1` [2-[4-(4-Methoxy-phenyl)-piperazin-1-ylmethyl]-quinoline], for which the Ki in assay [1] (setting [3]) amounted to 101 nM.

In the case of `OCc1ccc(N2CCN(Cc3ccc4ccccc4n3)CC2)cc1Br` [[2-Bromo-4-(4-quinolin-2-ylmethyl-piperazin-1-yl)-phenyl]-methanol], the Ki is 36 nM in assay [1] (setting [3]) and above 5880 nM in assay [2]. Taken in the same sequence, the figures for `Cc1ccc(N2CCN(Cc3ccc4ccccc4n3)CC2)cc1C` [2-[4-(3,4-Dimethyl-phenyl)-piperazin-1-ylmethyl]-quinoline] were 13 nM and above 5880 nM.

For the molecule `Fc1ccccc1N1CCN(Cc2cnc3ccccc3c2)CC1` [3-[4-(2-Fluoro-phenyl)-piperazin-1-ylmethyl]-quinoline], the Ki in assay [1] (setting [3]) came to 29 nM; in assay [2], 512 nM. Consider `OCc1ccc(N2CCN(Cc3cnc4ccccc4c3)CC2)cc1F` [[2-Fluoro-4-(4-quinolin-3-ylmethyl-piperazin-1-yl)-phenyl]-methanol], for which the Ki in assay [1] (setting [3]) was 8.8 nM; in assay [2], above 5880 nM. As to `Clc1cc(Cl)cc(N2CCN(Cc3ccc4ccccc4n3)CC2)c1` [2-[4-(3,5-Dichloro-phenyl)-piperazin-1-ylmethyl]-quinoline], the Ki in assay [1] (setting [3]) worked out at 121 nM. `Cc1ccc(N2CCN(Cc3ccc4ccccc4n3)CC2)cc1` [2-(4-p-Tolyl-piperazin-1-ylmethyl)-quinoline]: the Ki came to 1.55 nM in assay [1] (setting [3]) and 2850 nM in assay [2].

On to `FC(F)(F)c1cc(N2CCN(Cc3ccc4ccccc4n3)CC2)ccc1Cl` [2-[4-(4-Chloro-3-trifluoromethyl-phenyl)-piperazin-1-ylmethyl]-quinoline], for which the Ki in assay [1] (setting [3]) turned out to be 122 nM. On to `Cc1ccc(N2CCN(Cc3cnc4ccccc4c3)CC2)cc1` [3-(4-p-Tolyl-piperazin-1-ylmethyl)-quinoline], for which the values for the Ki in assay [1] (setting [3]) and in assay [2] were 21 nM and 2160 nM, respectively. As for `Clc1cccc(N2CCN(Cc3ccc4ccccc4n3)CC2)c1Cl` [2-[4-(2,3-Dichloro-phenyl)-piperazin-1-ylmethyl]-quinoline], in assay [1] (setting [3]), the Ki came out at 59.5 nM. Regarding `N#Cc1ccc(N2CCN(Cc3ccc4ccccc4n3)CC2)cc1Cl` [2-chloro-4-(4-quinolin-2-ylmethyl-piperazin-1-yl)-benzonitrile], the Ki in assay [1] was found to be 101 nM.

For the molecule `Clc1cccc(N2CCN(Cc3ccc4ccccc4n3)CC2)c1` [2-[4-(3-Chloro-phenyl)-piperazin-1-ylmethyl]-quinoline], the Ki is 2.72 nM in assay [1] (setting [3]) and above 5880 nM in assay [2]. Regarding `OCc1ccc(N2CCN(Cc3ccc4ccccc4n3)CC2)cc1F` [[2-Fluoro-4-(4-quinolin-2-ylmethyl-piperazin-1-yl)-phenyl]-methanol], the Ki in assay [1] (setting [3]) amounted to 87 nM.

`COCc1ccc(N2CCN(Cc3ccc4ccccc4n3)CC2)cc1Cl` [2-[4-(3-Chloro-4-methoxymethyl-phenyl)-piperazin-1-ylmethyl]-quinoline]: the Ki in assay [1] (setting [3]) was 31.5 nM; in assay [2], above 5880 nM. In the case of `OCc1ccc(N2CCN(Cc3cnc4ccccc4c3)CC2)cc1Br` [[2-Bromo-4-(4-quinolin-3-ylmethyl-piperazin-1-yl)-phenyl]-methanol], the Ki is 13.5 nM in assay [1] (setting [3]) and above 5880 nM in assay [2]. The corresponding values for `c1ccc(N2CCN(Cc3ccc4ncccc4c3)CC2)cc1` [6-(4-Phenyl-piperazin-1-ylmethyl)-quinoline] are 26 nM and 1380 nM.

In the case of `Cc1ccc(N2CCN(Cc3ccc4ccccc4n3)CC2)cc1Cl` [2-[4-(3-Chloro-4-methyl-phenyl)-piperazin-1-ylmethyl]-quinoline], the Ki was 36 nM in assay [1] (setting [3]) and above 5880 nM in assay [2]. As for `Brc1cccc(N2CCN(Cc3ccc4ccccc4n3)CC2)c1` [2-[4-(3-Bromo-phenyl)-piperazin-1-ylmethyl]-quinoline], the Ki in assay [1] (setting [3]) was 46 nM. Regarding `c1ccc(N2CCN(Cc3cnc4ccccc4c3)CC2)cc1` [3-(4-Phenyl-piperazin-1-ylmethyl)-quinoline], the Ki is 16 nM in assay [1] (setting [3]) and 1790 nM in assay [2].

As to `CCCc1cccc(N2CCN(Cc3ccc4ccccc4n3)CC2)c1` [2-[4-(3-Propyl-phenyl)-piperazin-1-ylmethyl]-quinoline], the Ki in assay [1] (setting [3]) was found to be 57 nM; in assay [2], 5810 nM.
